Measured values as given in US6482921B1, “Uridyl peptide antibiotic (UPA) derivatives, their synthesis and use” (Essential Therapeutics, Inc., priority 1999, dated 2002).
Converted amounts (≈) assume the structure as drawn.

Legend:
Format in all cases: cell-based
[1] = system: Pseudomonas aeruginosa PAM 1323; test: MIC broth microdilution, P. aeruginosa PAM 1323 (medium level UPA resistance)
Description: Compounds were tested against several panels of bacteria. In a first panel, Table 3, several strains of Pseudomonas aeruginosa, Escherichia coli and Staphylococcus aureus were employed as the target bacteria.
For the bacteria in Table 3, the assay was performed in Mueller-Hinton Broth (MHB) with a final bacterial inoculum of 5×10^5 CFU/ml and a final volume of 100 μl. Control drugs, including imipenem and pacidimycin 4, and the test compounds were prepared at a concentration which was twice the desired final concentration (256 μg/ml). Dilution of the controls and the test compounds was accomplished directly on the test plates by serial 2-fold dilution using a multi-channel pipette. Both a positive and a negative growth control was included in each plate.
The bacterial inocula were prepared as follows. Bacterial strains were grown overnight at 35° C. in MHB. […] The culture was then diluted 1:10 and allowed to grow for an additional one hour at 35° C. in a shaking incubator. The inocula were then prepared by diluting the early log phase (one hour) cultures 1:2000 with fresh MHB. A volume of 50 μl of the inocula was added to each well, resulting in an inoculum of approximately 5×10^5 CFU/ml. The exact inocula were determined by putting 10 μl of 10-fold serial dilution of the bacterial suspensions onto TSA. After overnight incubation at 35° C., colony-forming units were counted manually.
The microtiter plates were incubated for 20 hours at 35° C. and were then read using a microtiterplate reader (Molecular Devices) at 650 nm as well as being visually observed using a microtiterplate reading mirror.

[2] = system: Staphylococcus aureus ATCC 29213; test: MIC broth microdilution, S. aureus ATCC 29213 (wild type); conditions: S. aureus ATCC 29213
Escherichia Coli MC 4100 = test: MIC broth microdilution, E. coli MC 4100 (wild type); conditions: E. coli MC 4100
[3] = system: Pasteurella multocida pm002; test: MIC broth microdilution, P. multocida pm002 (wild type)
[4] = system: Pseudomonas aeruginosa PAM 1135; test: MIC broth microdilution, P. aeruginosa PAM 1135 (high level UPA resistance); conditions: P. aeruginosa PAM 1135 UPA1^r
[5] = system: Pseudomonas aeruginosa PAM 1020; test: MIC broth microdilution, P. aeruginosa PAM 1020 (wild type); conditions: P. aeruginosa PAM 1020
[6] = system: Escherichia Coli MC 4100 AcrAB; test: MIC broth microdilution, E. coli MC 4100 AcrAB (ΔAcrAB); conditions: E. coli AcrAB
[7] = system: Pseudomonas aeruginosa PAM 1154; test: MIC broth microdilution, P. aeruginosa PAM 1154 (OprM::Hg); conditions: P. aeruginosa PAM 1154 OprM::Hg
[8] = system: Staphylococcus aureus 8325-4; test: MIC broth microdilution, S. aureus 8325-4 (wild type); conditions: S. aureus 8325-4
[9] = system: Escherichia Coli MC 4100 AcrAB UPA3r; test: MIC broth microdilution, E. coli MC 4100 AcrAB UPA3r (ΔAcrAB, UPA resistant); conditions: E. coli AcrAB UPA3^r

Row | SMILES | MIC (μg/ml) Broth microdilution [1] [µg/mL] | MIC (μg/ml) Broth microdilution [2] [µg/mL] | MIC (μg/ml) Broth microdilution (Escherichia Coli MC 4100) [µg/mL] | MIC (μg/ml) Broth microdilution [3] [µg/mL] | MIC (μg/ml) Broth microdilution [4] [µg/mL] | MIC (μg/ml) Broth microdilution [5] [µg/mL] | MIC (μg/ml) Broth microdilution [6] [µg/mL] | MIC (μg/ml) Broth microdilution [7] [µg/mL] | MIC (μg/ml) Broth microdilution [8] [µg/mL] | MIC (μg/ml) Broth microdilution [9] [µg/mL]
1 | CC(C(NC(=O)C(Cc1ccccc1)NC(=O)NC(Cc1c[nH]c2ccccc12)C(=O)O)C(=O)NCC1CC(O)C(n2ccc(=O)[nH]c2=O)O1)N(C)C(=O)C(N)Cc1ccc(F)cc1 [Compound 114, 1-[5′-((2S,3S)-N^2-[N-[[(1S)-1-Carboxy-2-indol-3-ylethyl]carbamoyl]-L-phenylalanyl]-N^3-L-4-fluorophenylalanyl-N^3-methyl-2,3-diaminobutyramidol-3′,5′-dideoxy-α-L-arabinofuranosyl]uracil] | 256 (≈ 290 µM) | >512 | 512 (≈ 579 µM) | 256 (≈ 290 µM) | 256 (≈ 290 µM) | 16 (≈ 18.1 µM) | 8 (≈ 9.05 µM) | 16 (≈ 18.1 µM) | >512 | 512 (≈ 579 µM)
2 | CC(C(NC(=O)C(Cc1ccc(F)cc1)NC(=O)NC(Cc1c[nH]c2ccccc12)C(=O)O)C(=O)NCC1CC(O)C(n2ccc(=O)[nH]c2=O)O1)N(C)C(=O)CN [Compound 116, 1-[5′-[(2S,3S)-N^2-[N-[[(1S)-1-Carboxy-2-indol-3-ylethyl)carbamoyl]-L-4-fluorophenylalanyl]-N^3-glycyl-N^3-methyl-3-diaminobutyramido]-3′,5′-dideoxy-α-L-arabinofuranosyl]uracil] | 512 (≈ 645 µM) | 512 (≈ 645 µM) | 256 (≈ 322 µM) | 128 (≈ 161 µM) | >512 | 32 (≈ 40.3 µM) | <1 | 8 (≈ 10.1 µM) | 256 (≈ 322 µM) | 16 (≈ 20.2 µM)
3 | CC(C(NC(=O)C(Cc1ccc(F)cc1)NC(=O)NC(Cc1c[nH]c2ccccc12)C(=O)O)C(=O)NCC1CC(O)C(n2ccc(=O)[nH]c2=O)O1)N(C)C(=O)C(N)Cc1ccc(F)cc1 [Compound 118, 1-[5′-(2S,3S)-N^2-[N-[[(1S)-1-Carboxy-2-indol-3-ylethyl]carbamoyl]-L-4-fluorophenylalanyl]-N^3-L-4-fluorophenylalanyl-N^3-methyl-2,3-diaminobutyramido]-3′,5′-dideoxy-α-L-arabinofuranosyl]uracil] | 256 (≈ 284 µM) | >512 | 512 (≈ 568 µM) | 256 (≈ 284 µM) | 256 (≈ 284 µM) | 128 (≈ 142 µM) | 8 (≈ 8.87 µM) | 128 (≈ 142 µM) | >512 | 256 (≈ 284 µM)
4 | CC(N)C(=O)N(C)C(C)C(NC(=O)C(Cc1cccs1)NC(=O)NC(Cc1ccc(O)cc1)C(=O)O)C(=O)NCC1CC(O)C(n2ccc(=O)[nH]c2=O)O1 [Compound 119, 1-[5-[(2S,3S)-N^3-L-Alanyl-N^2-[N-[[(1S)-1-carboxy-4-hydroxyphenethyl]carbamoyl]-L-3-(2-thienyl)alanyl]-N^3-methyl-2,3-diaminobutyramido]-3′,5′-dideoxy-α-L-arabinofuranosyl]uracil] | >512 | >512 | >512 | >512 | >512 | 64 (≈ 82.8 µM) | 4 (≈ 5.18 µM) | 32 (≈ 41.4 µM) | >512 | 64 (≈ 82.8 µM)
5 | CC(C)CC(NC(=O)NC(Cc1ccc(O)cc1)C(=O)O)C(=O)NC(C(=O)NCC1CC(O)C(n2ccc(=O)[nH]c2=O)O1)C(C)N(C)C(=O)CN [Compound 120, 1-[5′-[(2S,3S)-N^2-[N-[[(1S)-1-Carboxy-4-hydroxyphenethyl]carbamoyl]-L-leucyl)-N^3-glycyl-N^3-methyl-2,3-diaminobutyramidol-3′,5′-dideoxy-α-L-arabinofuranosyl]uracil] | 512 (≈ 712 µM) | >512 | >512 | 512 (≈ 712 µM) | >512 | 16 (≈ 22.3 µM) | 8 (≈ 11.1 µM) | 4 (≈ 5.57 µM) | >512 | 128 (≈ 178 µM)
6 | CC(NC(=O)NC(Cc1c[nH]c2ccccc12)C(=O)O)C(=O)NC(C(=O)NCC1CC(O)C(n2ccc(=O)[nH]c2=O)O1)C(C)N(C)C(=O)CN [Compound 121, 1-[5′1-[(2S,3S)-N^2-[N-[[(1S)-1-Carboxy-2-indol-3-ylethyl)carbamoyl]-L-alanyl]-N^3-glycyl-N^3-methyl-2,3-diaminobutyramido]-3′,5′-dideoxy-α-L-arabinofuranosyl]uracil] | >512 | >512 | >512 | >512 | >512 | 64 (≈ 91.5 µM) | 2 (≈ 2.86 µM) | 4 (≈ 5.72 µM) | >512 | 16 (≈ 22.9 µM)
7 | CC(N)C(=O)N(C)C(C)C(NC(=O)C(Cc1ccccc1)NC(=O)NC(Cc1ccccc1)C(=O)O)C(=O)NCC1CC(O)C(n2ccc(=O)[nH]c2=O)O1 [Compound 122, 1-[5′-[[(2S,3S)-N^3-L-Alanyl-N^2-[N-[[(1S)-1-carboxy-phenethyl]carbamoyl]-L-phenylalanyl]-N^3-methyl-2,3-diaminobutyramido]-3′,5′-dideoxy-α-L-arabinofuranosyl]uracil] | >512 | >512 | >512 | >512 | >512 | 64 (≈ 85.2 µM) | 4 (≈ 5.33 µM) | 16 (≈ 21.3 µM) | 512 (≈ 682 µM) | 64 (≈ 85.2 µM)
8 | CC(C(NC(=O)C(Cc1ccccc1)NC(=O)NC(Cc1c[nH]c2ccccc12)C(=O)O)C(=O)NCC1CC(O)C(n2ccc(=O)[nH]c2=O)O1)N(C)C(=O)CCCCN [Compound 123, 1-[5′-[(2S,3S)-N^3-(5-Aminopentanoyl)-N^2-[N-[[(1S)-1-carboxy-2-indol-3-ylethyl]carbamoyl]-L-phenylalanyl]-N^3-methyl-2,3-diaminobutyramido]-3′,5′-dideoxy-α-L-arabinofuranosyl]uracil] | 256 (≈ 313 µM) | >512 | 512 (≈ 626 µM) | >512 | 256 (≈ 313 µM) | 32 (≈ 39.1 µM) | 4 (≈ 4.89 µM) | 16 (≈ 19.6 µM) | >512 | 512 (≈ 626 µM)
9 | CC(C(NC(=O)C(Cc1ccc(F)cc1)NC(=O)NC(Cc1ccc(O)cc1)C(=O)O)C(=O)NCC1CC(O)C(n2ccc(=O)[nH]c2=O)O1)N(C)C(=O)CCCCN [Compound 124, 1-[5′-[(2S,3S)-N^3-(5-Aminopentanoyl)-N^2-[N-[[(1S)-1-carboxy-4-hydroxyphenethyl]carbamoyl]-L-4-fluorophenylalanyl]-N^3-methyl-2,3-diaminobutyramido]-3′,5′-dideoxy-α-L-arabinofuranosyl]uracil] | >512 | >512 | 256 (≈ 315 µM) | >512 | >512 | 512 (≈ 630 µM) | 2 (≈ 2.46 µM) | 128 (≈ 157 µM) | >512 | 128 (≈ 157 µM)
